Reference: US9115159B2, “Phosphate compounds, a process for their preparation and pharmaceutical compositions containing them” (LES LABORATOIRES SERVIER, priority 2013, dated 2015)
Where “and” joins values, the source holds several entries; their conditions need not be identical. Equal values may be shown once.

How the values were obtained:
caspase 3 = assay: Induction of caspase activity in vivo (DEVDase activity in tumour lysates, RS4;11 xenograft); design: species or system mice (SCID strain); conditions: 100 mg/kg p.o., 16 hours after treatment, RS4;11 tumour lysates, treated mice / control mice
Description: The ability of the compounds of formula (I′) to activate caspase 3 is evaluated in a xenograft model of RS4;11 leukaemia cells.
1×10^7 RS4;11 cells are grafted sub-cutaneously into immunosuppressed mice (SCID strain). 25 to 30 days after the graft, the animals are treated orally with the various compounds. Sixteen hours after treatment, the tumour masses are recovered and lysed, and the caspase 3 activity is measured in the tumour lysates.
This enzymatic measurement is carried out by assaying the appearance of a fluorigenic cleavage product (DEVDase activity, Promega). It is expressed in the form of an activation factor corresponding to the ratio between the two caspase activities: the activity for the treated mice divided by the activity for the control mice.
N-(4-Hydroxyphenyl)-3-{6-[((3S)-3-(4-morpholinylmethyl)-3,4-dihydro-2(1H)-isoquinolinyl)carbonyl]-1,3-benzodioxol-5-yl}-N-phenyl-5,6,7,8-tetrahydro-1-indolizine carboxamide (also referred to as the drug from Example 1) was tested. At a dose of 100 mg/kg p.o., the in vivo caspase activation factor is 29.3.

Solubility in water = assay type: physicochemical
Description: The solubility of compounds of formula (I) in water was measured and compared with that of compounds of formula (I′).
More specifically, 4-[{[3-(6-{[(3S)-3-(morpholin-4-ylmethyl)-3,4-dihydroisoquinolin-2(1H)-yl]carbonyl}-1,3-benzodioxol-5-yl)-5,6,7,8-tetrahydroindolizin-1-yl]carbonyl}-(phenyl)amino]phenyl disodium phosphate (also referred to as the compound of Example 1) was tested and compared to N-(4-hydroxyphenyl)-3-{6-[((3S)-3-(4-morpholinylmethyl)-3,4-dihydro-2(1H)-isoquinolinyl)carbonyl]-1,3-benzodioxol-5-yl}-N-phenyl-5,6,7,8-tetrahydro-1-indolizine carboxamide (also referred to as the drug from Example 1).
The solubilities of the compounds were also measured in a medium buffered to physiological pH (cf. Table 3).

[1] = Pharmacokinetic profile in the Wistar rat, lipid versus aqueous formulation; assay type: in vivo, male Wistar rats; conditions: Drug from Example 1 administered 100 mg/kg p.o., plasma
Description: The pharmacokinetic profile of N-(4-hydroxyphenyl)-3-{6-[((3S)-3-(4-morpholinyl-methyl)-3,4-dihydro-2(1H)-isoquinolinyl)carbonyl]-1,3-benzodioxol-5-yl}-N-phenyl-5,6,7,8-tetrahydro-1-indolizine carboxamide (also referred to as the drug from Example 1) is also evaluated in a lipid and aqueous formulation in the Wistar rat.
The drug from Example 1 is prepared in an aqueous suspension in hydroxyethylcellulose 1% (w/v) in water and compared to a lipid formulation composed of a mixture of anhydrous ethanol/polyethylene glycol 400/Phosal 50PG ([…], v/v/v). The two formulations are administered by the oral route to male Wistar rats (3 rats per formulation) at a dose of 100 mg/kg p.o. (gavage, 10 mL/kg).
Blood samples are taken at the following points in time from each animal (3 animals/point in time): 0.25 hr, 0.5 hr, 0.75 hr, 1 hr, 2 hrs, 4 hrs, 8 hrs and 24 hrs after oral administration.
The plasma concentrations of the tested compound are determined after extraction followed by liquid chromatography coupled with mass spectrometric detection. The limit of quantification is 0.1 ng/mL.

[2] = In vitro test on human Caco-2 cells, cellular transport A to B; assay type: in vitro ADME; conditions: human, Caco-2, drug incubated and measured, A to B, 1 or 3 μM, read-out: Papp, the drug after incubation of the drug
Summary of the method: (§1)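 Apical-to-basolateral transport, prodrug or drug dosed apically at 1 or 3 μM in duplicate for 120 minutes. Apical samples at 0 and 120 min and basolateral samples at 120 min quantified by LC-MS/MS (LOQ 2 ng/mL) for prodrug and drug. Papp, predicted human Fabs and percent recovery calculated.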

human Caco-2 cells = assay: as above; assay type: in vitro ADME; conditions: drug incubated and measured, 120 minutes
Summary of the method: as §1

[3] = aqueous formulation (suspension in hydroxyethylcellulose 1% in water)
[4] = lipid formulation (anhydrous ethanol/polyethylene glycol 400/Phosal 50PG)

O=C(c1cc(-c2cc3c(cc2C(=O)N2Cc4ccccc4C[C@H]2CN2CCOCC2)OCO3)n2c1CCCC2)N(c1ccccc1)c1ccc(O)cc1 [Drug from Example 1, N-(4-hydroxyphenyl)-3-{6-[((3S)-3-(4-morpholinylmethyl)-3,4-dihydro-2(1H)-isoquinolinyl)carbonyl]-1,3-benzodioxol-5-yl}-N-phenyl-5,6,7,8-tetrahydro-1-indolizine carboxamide]
in vivo caspase activation factor (caspase 3): 29.3
solubility (Solubility in water): 40 µg/mL and 56.2 µM
AUCt, compound measured: Drug from Example 1 [1, 3]: AUCt (ng · h/mL) = 3480
Cmax, compound measured: Drug from Example 1 [1, 3]: Cmax (ng/mL) = 816
AUCt, compound measured: Drug from Example 1 [1, 4]: AUCt (ng · h/mL) = 42900
Cmax, compound measured: Drug from Example 1 [1, 4]: Cmax (ng/mL) = 5070
Papp A→B at 120 min [2]: 0.65 ×10⁻⁶ cm/s
Yield (experiment yield), the drug after incubation of the drug (human Caco-2 cells): Yield (%) = 37
Fabs (predicted absorbed fraction in humans), the drug after incubation of the drug (human Caco-2 cells; A to B, 1 or 3 μM): Fabs (%) = 67
